Literature values as cited in paper PMC4220649 (Blood Cancer Journal, 2014).

Tested on: patients with lymphoma
Settings: IV bortezomib in lymphoma; cited from earlier work

## CC(C)C[C@H](NC(=O)[C@H](Cc1ccccc1)NC(=O)c1cnccn1)B(O)O [bortezomib]
  Grade 3 PN rates: 3–13%
  Overall rates of PN: 17–55%
